Holding throughout (assay type): physicochemical
Series [1] in a line: Approximate solubility of Compound I in different solvents. As to conditions: for solubility: thermodynamic from solid, ambient temperature, approximate. The procedure: Compound I prepared by the method described in Example 1 was used for the solubility study. Solvents and other reagents were of ACS or HPLC grade and were used as received.
A weighed sample (typically about 20-25 mg) of Compound I was treated at ambient temperature with aliquots (typically ≧50 μL) of the test solvent with sonication between additions. Solvents were either reagent or HPLC grade. Solubility was estimated from the total volume of solvent used to obtain a clear solution, as determined by visual inspection. Solubility is expressed as “less than” when dissolution was not observed. If dissolution occurred after the last aliquot was added then solubility is expressed as “greater than or equal to” (≧). The actual solubilities may be greater than determined, due to over addition of solvent (large aliquots) or slow dissolution rates. Approximate solubilities of Compound I are summarized in Table A. The solubility values have been rounded to the nearest whole number and are reported to the nearest mg/mL.

Series [2] is described as follows: Vapor stress of amorphous solid. The procedure: Amorphous Compound I was placed in acetone, ethanol, and water vapor chambers for up to eight days. The solids were collected and analyzed by XRPD for form identification.
Solids of Amorphous Form of Compound I were stressed in acetone and ethanol vapor stress chambers for 4 days. Other aliquots of the solids were stressed in a water vapor chamber for 4 days and 8 days. The remaining solids were analyzed by XRPD.

A short description of series [3]: Relative humidity stressing experiments. As to conditions: conditions not given. From the text: Samples of Compound I were placed uncovered in approximately 58%, 88%, and 97% relative humidity jars. The samples were stored in the jars for approximately 8 days. The solids were collected and analyzed by XRPD for form identification. […] An aliquot of a mixture of Form A+B was stressed at 88% relative humidity for 23 days. Amorphous Form was stressed at 58% and 88% relative humidity for 23 days.

The nature of series [4]: Moisture sorption/desorption analysis. The procedure:
Moisture sorption/desorption data were collected on a VTI SGA-100 Vapor Sorption Analyzer. Sorption and desorption data were collected over a range of 5% to 95% relative humidity (RH) at 10% RH intervals under a nitrogen purge. Samples were not dried prior to analysis. Equilibrium criteria used for analysis were less than 0.0100% weight change in 5 minutes, with a maximum equilibration time of 3 hours if the weight criterion was not met. Data were not corrected for the initial moisture content of the samples. NaCl and PVP were used as calibration standards. Moisture sorption and desorption study was conducted on a sample of Form A+B. The sample was prepared by crashed cooling crystallization (Example 3, section A.6) of the polymorphic forms from a ethanol:water (95:5) solution of Compound I. The moisture sorption and desorption study was conducted according to the procedures outlined in Example 3, section B.10. The data collected is plotted in FIG. 13 and summarized in Table L. Moisture sorption and desorption study was conducted on a sample of Form E. The sample was prepared by solvent/antisolvent crystallization (Example 3, section A.7) by the addition of acetonitrile to Compound I in water. The moisture sorption and desorption study was conducted according to the procedures outlined in Example 3, section B.10. The data collected is plotted in FIG. 23 and summarized in Table M. Moisture sorption and desorption study was conducted on a sample of Amorphous Form. The sample was prepared by lyophilolization of a solution of Compound I in water (Example 3, section A.9). The moisture sorption and desorption study was conducted according to the procedures outlined in Example 3, section B.10.

The structures appear in SMILES notation. “Also recorded” adds a separate entry of the source. Where only a bound is given, the exact number is not on record here.

What is called solubility is the concentration that dissolves in the medium under given conditions.

Consider `Cn1c(=O)cc(N2CCC[C@@H](N)C2)n(Cc2cc(F)ccc2C#N)c1=O` [Compound I, 2-[6-(3-amino-piperidin-1-yl)-3-methyl-2,4-dioxo-3,4-dihydro-2H-pyrimidin-1-ylmethyl]-4-fluoro-benzonitrile succinate], for which the solubility in series [1] (2-propanol:water (88:12), organic solvent or mixture, IPA:H2O (88:12)) was 11000 µg/mL; in series [1] (acetonitrile:water (85:15), organic solvent or mixture, ACN:H2O (85:15)) it was 101000 µg/mL; in series [1] (diethyl ether, organic solvent or mixture, di-Ethyl ether), less than 1000 µg/mL; in series [1] (ethanol:water (95:5), organic solvent or mixture, EtOH:H2O (95:5)) it was 5000 µg/mL; in series [1] (organic solvent or mixture, 1,4-Dioxane) it was less than 1000 µg/mL; in series [1] (organic solvent or mixture, 2-Propanol (IPA)), less than 1000 µg/mL. Moreover, the solubility in series [1] (organic solvent or mixture, Acetone) was 2000 µg/mL; in series [1] (organic solvent or mixture, Acetonitrile (ACN)), less than 1000 µg/mL; in series [1] (organic solvent or mixture, Dichloromethane (DCM)), less than 1000 µg/mL; in series [1] (organic solvent or mixture, Dimethyl Formamide (DMF)) it was 68000 µg/mL; in series [1] (organic solvent or mixture, Ethanol (EtOH)) it was 2000 µg/mL; in series [1] (organic solvent or mixture, Ethyl Acetate (EtOAc)), less than 1000 µg/mL. The solubility in series [1] (organic solvent or mixture, Hexanes) is less than 1000 µg/mL; in series [1] (organic solvent or mixture, Methanol (MeOH)), 20000 µg/mL; in series [1] (organic solvent or mixture, Tetrahydrofuran (THF)) it was less than 1000 µg/mL; in series [1] (organic solvent or mixture, Toluene) it was less than 1000 µg/mL; in series [1] (organic solvent or mixture, Trifluoroethanol (TFE)) it was more than 200000 µg/mL; in series [1] (Water (H2O)), 51000 µg/mL. Moreover, in series [1] (most solvents, except DMF, methanol, TFE, water and water:solvent mixtures), the “Solubility (in words)” value is “Poor solubility”.

With `Cn1c(=O)cc(N2CCC[C@@H](N)C2)n(Cc2ccccc2C#N)c1=O.O=C(O)CCC(=O)O` [Amorphous Solid of Compound I], the “Color/morphology after vapor stress” value in series [2] (Acetone vapor, 4 days) was “off white, irregular”; in series [2] (EtOH vapor, 4 days) it was “off white, irregular”; in series [2] (Water vapor, 4 days), “off white, irregular,”; in series [2] (Water vapor, 8 days), “white, irregular,”. Moreover, the “Form after vapor stress (XRPD)” value is given as “A + D” in series [2] (Water vapor, 4 days) and “low” in series [2] (Water vapor, 8 days).

Regarding `Cn1c(=O)cc(N2CCC[C@@H](N)C2)n(Cc2cc(F)ccc2C#N)c1=O.O=C(O)CCC(=O)O` [Form B], in series [3], the “form change in additional relative humidity stressing studies” value is recorded as “converted to Form A”.

As to `Cn1c(=O)cc(N2CCC[C@@H](N)C2)n(Cc2cc(F)ccc2C#N)c1=O.O=C(O)CCC(=O)O` [Form E], the Weight % chg is listed as −1.322% in series [4] (Samp RH 5.03%, 24.77° C., elapsed 730.6 min (desorption)); −1.268% in series [4] (Samp RH 5.23%, 24.77° C., elapsed 138.3 min); −1.187% in series [4] (Samp RH 14.89%, 24.78° C., elapsed 154.5 min (sorption)); −0.102% in series [4] (Samp RH 14.94%, 24.79° C., elapsed 557.2 min (desorption)); −1.074% in series [4] (Samp RH 24.87%, 24.78° C., elapsed 170.5 min (sorption)); −0.013% in series [4] (Samp RH 25.02%, 24.79° C., elapsed 543.5 min (desorption)). The Weight % chg was −0.947% in series [4] (Samp RH 34.83%, 24.78° C., elapsed 184.5 min (sorption)); 0.112% in series [4] (Samp RH 35.13%, 24.79° C., elapsed 526.0 min (desorption)); 0.000% in series [4] (Samp RH 35.22%, 24.77° C., elapsed 0.1 min (start)); −0.755% in series [4] (Samp RH 44.87%, 24.78° C., elapsed 203.4 min (sorption)); 0.236% in series [4] (Samp RH 45.03%, 24.78° C., elapsed 512.2 min (desorption)); −0.223% in series [4] (Samp RH 55.04%, 24.79° C., elapsed 253.5 min (sorption)). Moreover, the Weight % chg is 0.398% in series [4] (Samp RH 55.05%, 24.78° C., elapsed 499.6 min (desorption)); 0.325% in series [4] (Samp RH 65.05%, 24.78° C., elapsed 281.1 min (sorption)); 0.616% in series [4] (Samp RH 65.16%, 24.78° C., elapsed 487.4 min (desorption)); 0.608% in series [4] (Samp RH 74.87%, 24.78° C., elapsed 301.2 min (sorption)); 0.949% in series [4] (Samp RH 75.25%, 24.78° C., elapsed 471.9 min (desorption)); 1.410% in series [4] (Samp RH 84.67%, 24.79° C., elapsed 322.2 min (sorption)). Moreover, the Weight % chg in series [4] (Samp RH 85.18%, 24.77° C., elapsed 452.4 min (desorption)) was 1.632%; in series [4] (Samp RH 94.73%, 24.78° C., elapsed 415.8 min (sorption)), 4.216%. Further, the “weight loss on equilibration at 5% relative humidity” value in series [4] (equilibration at 5% RH) was 1.3%. In series [4] (post moisture sorption/desorption), the “form by XRPD of the material remaining after the moisture sorption/desorption analysis” value is “a mixture of Form A and Form E; also recorded: A + small quantity of E”.

For the origin of these results see patent publication US20080227798A1, “POLYMORPHS OF SUCCINATE SALT OF 2-[6-(3-AMINO-PIPERIDIN-1-YL)-3-METHYL-2,4-DIOXO-3,4-DIHYDRO-2H-PYRIMIDIN-1-YLMETHY]-4-FLUOR-BENZONITRILE AND METHODS OF USE THEREFOR” (priority 2006, published 2008).
